Here are results for five molecules from patent publication US20030202977A1, “Treatment of osteoarthritis” (New York University, priority 1998, published 2003).

Marks after values point to notes of the source that are not given here.

In test [1] the target is α5β1 integrin of human cartilage chondrocytes (human) (UniProt P08648). Nature of the test: cell-based or functional assay.
Test [2] relates to human osteoarthritis-affected cartilage. Nature of the test: Osteoarthritis-explant assay: release of inflammatory mediators from cartilage organ cultures. The class given is cell-based. The settings on record: for Effect on PGE2 production / Effect on NO production/accumulation: osteoarthritis-affected cartilage; for Effect on NO production/accumulation: compared to control cartilage; for Nitrite / PGE2: per 100 mg cartilage, 72 hours post stimulation, mean ± S.D., n=3; for Nitrite: JBS5 0.5 μg/ml, αvβ3 Abs 5 μg/ml, L-NMMA 500 μM, IL-1β 1 ng/ml, RGD or RGE 1 mg/ml, control 1.2 ± 0.2; for PGE2: control 13.1 ± 0.2. An excerpt:
ELISA kits for IL-1β, IL-6 and IL-8 were purchased from R and D (Minneapolis, Minn.). Cyclic RGD and RGE peptides were procured form Bachem Biosciences, Inc. (King of Prussia, Pa.). Anti-αvβ3 (JBS5) and anti-3 (LM609) were purchased from Chemicon International (Temecula, Calif.). Another anti-αvβ3 antibody (mAb13) was a generous gift from Dr. Yamada (NIH, Bethesda, Md.).
Cartilage slices were taken from the knees of patients who had been diagnosed with advanced osteoarthritis, ages 50-70 years, who were undergoing knee replacement surgery. Non-arthritic knee cartilage, normal control, ages 20-70 years, was obtained from patients with fractures or from accident victims after knee amputation.
Knee articular cartilage from osteoarthritis patients or normal individuals was cut into 3 mm discs, and 4-6 discs were placed (triplicate or quadruplicate) into a 24-well plate containing 2 ml F-12 medium+0.1% human albumin in the presence or absence of anti-αvβ3 (JBS5) or anti-3 (LM609) antibodies along with various modulators, as previously described by Amin et al (1995 and 1997).
(§1) NO production was measured by estimating the stable NO metabolite, nitrite, in condition medium by modified Griess reaction, Gilliam et al (1993). PGE2 was analyzed from supernatant by RIA, Amin et al (1997).
OA-affected cartilage was incubated in the medium with various modulators: 0.5 μg/ml of α5β1 (JBS5), 5 μg/ml αvβ3 Abs, L-NMMA (500 μM), IL-1β (1 ng/ml), 1 mg/ml of RGD or RGE. The accumulation of IL-1β, IL-8, IL-6, nitrite and PGE2 were estimated 72 hours post stimulation. Data represents±S.D. where n=3. The P values described are compared with the (control) unstimulated OA-affected cartilage. The data represent one of the two similar experiments.

Test [3] has as its system primary bovine chondrocytes. Nature of the test: NO and PGE2 production in primary bovine chondrocytes. The class given is cell-based. The procedure: Bovine chondrocytes were seeded in 24 well plates at a density of 0.5×10^6 cells/well in 2 ml medium. After 24 hours post-seeding, the cells were treated with either 50 ng of JBS5 monoclonal antibody or 1 ng/ml IL-1β alone and in the presence and absence of 0.5 μg/ml of sIL-1RII for 72 hours. NO and PGE2 were estimated as described in Materials and Methods. The data present one of the two similar experiments. Data represent mean±s.d. value. The p values described are compared with IL-l (*) or anti-α5β1 monoclonal antibody (**); *p≦0.01, **p≦0.01.
Bovine chondrocytes were seeded in 24 well plates and stimulated with 1 ng/ml Il-1β, 100 μg/ml LPS, IL-1β+LPS+TNFα and anti-α5β1 monoclonal antibody in the presence or absence of 5 μg/ml anti-αvβ3. The accumulation of NO and PGE2 was estimated at the end of 72 hours. The data represent one of the two similar experiments the data represent mean±s.d. value.
Bovine chondrocytes were isolated as previous described by Attur et al 1998. Briefly, cartilage slices from bovine cartilage were finely minced and digested sequentially with 0.2% testicular hyaluronidase for five minutes at 37° C., and 0.2% collagenase for 1-2 hours at 37° C. After being strained through sterile nylon mesh, the cells were centrifuged at 1200×g for ten minutes. The cell pellets were washed twice with Ham's F-12 medium, followed by resuspension and centrifuging at 1000×g for ten minutes. Finally, the pellets were suspended in complete F-12 medium before being plated to flasks.
as §1

Test [4] concerns chondrocytes. Nature of the test: Nitric oxide versus PGE2 production in chondrocytes. The test is classed as cell-based.

UniProt P08648, sequence (P08648 42-1049, chain 1 of 2): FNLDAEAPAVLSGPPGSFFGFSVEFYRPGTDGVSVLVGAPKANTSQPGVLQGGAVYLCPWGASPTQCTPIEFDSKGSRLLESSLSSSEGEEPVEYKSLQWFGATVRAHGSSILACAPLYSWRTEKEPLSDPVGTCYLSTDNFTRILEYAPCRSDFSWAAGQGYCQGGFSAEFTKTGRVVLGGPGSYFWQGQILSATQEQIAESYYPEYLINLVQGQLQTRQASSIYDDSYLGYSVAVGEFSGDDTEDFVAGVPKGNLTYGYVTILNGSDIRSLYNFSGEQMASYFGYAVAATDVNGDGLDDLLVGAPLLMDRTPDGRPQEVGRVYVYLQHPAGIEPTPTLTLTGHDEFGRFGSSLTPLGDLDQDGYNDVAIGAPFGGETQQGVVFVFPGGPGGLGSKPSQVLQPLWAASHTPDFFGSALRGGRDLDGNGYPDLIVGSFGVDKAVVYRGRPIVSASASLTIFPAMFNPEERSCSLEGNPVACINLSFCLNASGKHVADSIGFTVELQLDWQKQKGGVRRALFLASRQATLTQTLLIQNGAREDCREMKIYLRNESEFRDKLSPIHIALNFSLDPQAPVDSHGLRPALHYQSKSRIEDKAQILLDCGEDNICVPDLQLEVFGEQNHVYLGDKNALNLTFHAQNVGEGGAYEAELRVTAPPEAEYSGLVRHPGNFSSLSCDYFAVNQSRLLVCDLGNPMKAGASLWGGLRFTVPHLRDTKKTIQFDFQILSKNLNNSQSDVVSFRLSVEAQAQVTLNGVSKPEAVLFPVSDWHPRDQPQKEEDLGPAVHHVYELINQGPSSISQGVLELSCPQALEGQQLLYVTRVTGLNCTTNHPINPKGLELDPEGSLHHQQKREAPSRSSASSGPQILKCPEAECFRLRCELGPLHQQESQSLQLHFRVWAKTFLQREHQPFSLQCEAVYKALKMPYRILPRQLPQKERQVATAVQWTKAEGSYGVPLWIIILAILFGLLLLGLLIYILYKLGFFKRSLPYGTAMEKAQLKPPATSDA
UniProt P08648, sequence (P05556 21-798, chain 2 of 2, further chain): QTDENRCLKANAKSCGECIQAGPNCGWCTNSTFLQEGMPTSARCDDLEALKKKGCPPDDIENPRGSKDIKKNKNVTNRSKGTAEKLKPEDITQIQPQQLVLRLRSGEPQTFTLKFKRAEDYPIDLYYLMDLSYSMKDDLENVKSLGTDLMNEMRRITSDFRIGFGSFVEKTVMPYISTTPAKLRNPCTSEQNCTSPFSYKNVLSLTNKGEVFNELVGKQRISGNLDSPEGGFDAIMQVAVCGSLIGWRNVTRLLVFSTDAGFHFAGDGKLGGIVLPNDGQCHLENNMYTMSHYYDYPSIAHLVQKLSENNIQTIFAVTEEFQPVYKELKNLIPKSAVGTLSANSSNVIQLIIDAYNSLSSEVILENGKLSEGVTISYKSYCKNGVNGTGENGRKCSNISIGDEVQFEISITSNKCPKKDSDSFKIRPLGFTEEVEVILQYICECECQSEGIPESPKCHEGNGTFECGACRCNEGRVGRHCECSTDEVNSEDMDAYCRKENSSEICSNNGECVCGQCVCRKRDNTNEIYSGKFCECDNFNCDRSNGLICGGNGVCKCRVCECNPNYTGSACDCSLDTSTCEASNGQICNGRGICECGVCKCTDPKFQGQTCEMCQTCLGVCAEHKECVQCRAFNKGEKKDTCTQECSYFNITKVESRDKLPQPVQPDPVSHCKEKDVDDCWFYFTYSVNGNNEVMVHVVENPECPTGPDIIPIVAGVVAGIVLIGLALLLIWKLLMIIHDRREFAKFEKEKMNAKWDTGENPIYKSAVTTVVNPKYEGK

On to JBS5 monoclonal antibody, for which, in test [1], the IL-1β, human OA-affected cartilage explants, 72 h, 0.5 µg/ml JBS5 (pg/ml per 100 mg cartilage) turned out to be 87.6; the IL-6, human OA-affected cartilage explants, 72 h, 0.5 µg/ml JBS5 (ng/ml per 100 mg cartilage) stood at 17.7; the IL-8, human OA-affected cartilage explants, 72 h, 0.5 µg/ml JBS5 (ng/ml per 100 mg cartilage) amounted to 17.7; the Nitrite, human OA-affected cartilage explants, 72 h, 0.5 µg/ml JBS5 (µM per 100 mg cartilage) was found to be 12.7. The PGE2, human OA-affected cartilage explants, 72 h, 0.5 µg/ml JBS5 (ng/ml per 100 mg cartilage) in test [1] came to 19.1.
For the molecule `CNC(=N)NCCC[C@H](N)C(=O)O` [NMMA], in test [2], the “Effect on PGE2 production” value was “augmented”, the “Effect on NO production/accumulation” value is “inhibition”, the Nitrite was 0.8 ± 0.1^c μM and the PGE2 is reported as 18.4 ± 0.8^c ng/ml.
On to “IL-1β: cytokine used as positive control, 1 ng/ml”, for which, in test [2], the “Effect on PGE2 production” value was “augmented”, the “Effect on NO production/accumulation” value is reported as “augmented”, the Nitrite is 17.3 ± 2.4^a μM and the PGE2 is given as 29.6 ± 7.2^c ng/ml. In addition, in test [3] (primary bovine chondrocytes), the “Effect on NO and PGE2 (inflammatory mediator) production, substance added as modulator” value was “up-regulation”.
As to “osteopontin: soluble secretory phosphoprotein, ligand of αvβ3”, the “Effect on NO production/accumulation” value in test [2] is on record as “inhibited”. Also, the “Inhibition of PGE2 production relative to nitric oxide production” value in test [4] was “equally inhibit”.

B1: sIL-1RII: recombinant soluble type II IL-1 receptor cloned from human neutrophils, released from Sf9 insect cells (protein)
chain: FTLQPAAHTGAARSCRFRGRHYKREFRLEGEPVALRCPQVPYWLWASVSPRINLTWHKNDSARTVPGEEETRMWAQDGALWLLPALQEDSGTYVCTTRNASYCDKMSIELRVFENTDAFLPFISYPQILTLSTSGVLVCPDLSEFTRDKTDVKIQWYKDSLLLDKDNEKFLSVRGTTHLLVHDVALEDAGYYRCVLTFAHEGQQYNITRSIELRIKKKKEETIPVIISPLKTISASLGSRLTIPCKVFLGTGTPLTTMLWWTANDTHIESAYPGGRVTEGPRQEYSENNENYIEVPLIFDPVTREDLHMDFKCVVHNTLSFQTLRTTVKE
In the case of B1, in test [2] (human arthritis affected cartilage, ex vivo, in the presence or absence of IL-1), the “Effect on production of IL-1, nitric oxide, PGE2, IL-6, IL-8 and MMPs” value was “inhibits”. Also, the “Effect on IL-1β and JBS5 monoclonal antibody induced NO and PGE2 production” value in test [2] (osteoarthritis cartilage explants, FIG. 1b) is given as “inhibited significantly”. In test [3] (preincubation of cells for fifteen minutes), the “Effect on IL-1β induced accumulation of NO and PGE2” value is “blocked”. Also, the “Effect on anti-αvβ3 monoclonal antibody induced production of NO and PGE2” value in test [3] (preincubation of cells for fifteen minutes, inducer is JBS5) is “blocked”.
